Reference: patent US12459891B2, “1-[1-(4-benzyloxy-3,5-difluoro-benzoyl)-4-fluoro-pyrrolidine-2-carbonyl]-pyrrolidine-2-carbonitrile” (ACCURE THERAPEUTICS, S.L., priority 2020, dated 2025)

What was measured:
[1] = Plasma levels after oral administration; type: in vivo
[2] = molecular target: T1, human prolyl oligopeptidase (Homo sapiens, UniProt P48147); assay: POP inhibition assay (Z-G-P-AMC substrate, fluorimetric); type: biochemical; settings: hPOP 20 to 60 nM, 15 min preincubation, 1 hour at 37° C., pH 8.0
T1 construct: His tail; made in house; host or cells: E. coli BL21
T1 sequence (P48147 1-710): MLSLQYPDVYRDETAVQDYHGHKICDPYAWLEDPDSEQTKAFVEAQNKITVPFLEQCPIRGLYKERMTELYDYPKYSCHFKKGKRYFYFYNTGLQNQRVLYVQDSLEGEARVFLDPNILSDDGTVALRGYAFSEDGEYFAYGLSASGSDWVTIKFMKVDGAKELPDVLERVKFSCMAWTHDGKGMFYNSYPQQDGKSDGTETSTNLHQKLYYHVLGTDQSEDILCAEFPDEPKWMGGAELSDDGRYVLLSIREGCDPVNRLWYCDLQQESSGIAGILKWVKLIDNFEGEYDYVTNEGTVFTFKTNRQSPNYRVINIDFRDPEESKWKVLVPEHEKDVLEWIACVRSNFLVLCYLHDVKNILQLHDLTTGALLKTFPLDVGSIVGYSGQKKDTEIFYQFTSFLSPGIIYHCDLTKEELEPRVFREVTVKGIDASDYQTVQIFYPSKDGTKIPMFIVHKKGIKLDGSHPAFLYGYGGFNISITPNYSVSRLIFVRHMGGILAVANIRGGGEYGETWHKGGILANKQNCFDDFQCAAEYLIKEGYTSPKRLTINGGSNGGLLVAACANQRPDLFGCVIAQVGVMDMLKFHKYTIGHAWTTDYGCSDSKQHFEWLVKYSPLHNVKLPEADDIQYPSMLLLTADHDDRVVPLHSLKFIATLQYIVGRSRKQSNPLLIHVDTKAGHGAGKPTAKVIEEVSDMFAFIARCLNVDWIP
Method: POP was obtained by expression in E. coli and affinity purification using a His tail fusion according to a literature procedure (Tarragó T et al., Chem Bio Chem 2006; 7:827-33) summarized below:
hPOP expression: E. coli BL21 competent cells were transformed with pETM10 hPOP. To induce expression, a pre-culture of LB medium (50 mL) containing kanamycin (50 μg/mL) was inoculated with one colony and was grown overnight at 37° C. Next day, two cultures of LB medium (500 mL) were inoculated with the overnight culture (10 mL). The inoculated cultures were grown at 37° C. and 220 rpm until the OD595 was 1.2 (2.5-3 hours). […] The column was washed with suspension buffer until the absorbance at 280 nm returned to basal level. […] POP activity was checked in all fractions and positive ones were analyzed by SDS-PAGE and stained with Biosafe Comassie Stain G-250. […] Recombinant hPOP was quantified with the Bio-Rad Protein Assay with BSA as standard. […]
POP activity was determined following the method described by Toide et al (Toide K et al., J. Pharmacol. Exp. Ther. 1995; 274:1370-8), using Z-G-P-AMC (N-benzyloxycarbonyl-Gly-Pro-methylcoumarinyl-7-amide) as POP substrate. […]
Several concentration points (ranging from 25 μM to 400 μM) were measured for each compound. The inhibitory activity on prolyl oligopeptidase was calculated according to eq 1. […]

Detected plasma levels of the drug (in words) [1] | IC50 [2] [nM] | SMILES
very low | – | COc1cc(C(=O)N2CC(F)(F)C[C@H]2C(=O)N2CCC[C@H]2C#N)cc(OC)c1OCc1ccccc1 [Comp Ex. 3, (S)-1-((2S)-1-(4-(benzyloxy)-3,5-dimethoxybenzoyl)-4,4-difluoropyrrolidine-2-carbonyl)pyrrolidine-2-carbonitrile]
– | 365 | N#C[C@@H]1CCCN1C(=O)[C@@H]1CC(F)(F)CN1C(=O)c1ccc(OCc2ccccc2)c(F)c1 [Comp Ex. 4, (S)-1-((S)-1-(4-(benzyloxy)-3-fluorobenzoyl)-4,4-difluoropyrrolidine-2-carbonyl) pyrrolidine-2-carbonitrile]
– | 45 | N#C[C@@H]1CCCN1C(=O)[C@@H]1C[C@@H](F)CN1C(=O)c1cc(F)c(OCc2ccccc2)c(F)c1 [Example 1, (S)-1-((2S,4R)-1-(4-(benzyloxy)-3,5-difluorobenzoyl)-4-fluoropyrrolidine-2-carbonyl)pyrrolidine-2-carbonitrile]
